According to US9611232B2, “Oxazolidinone and imidazolidinone compounds” (Hoffmann-La Roche Inc., priority 2012, dated 2017):

How the values were obtained:
KCa3.1 = KCa3.1 (Homo sapiens (Human), UniProt O15554); assay: Thallium influx assay (FLIPR, FluxOR); assay type: cell-based; conditions: CHOK1 cells over-expressing KCa3.1; thallium (3.3 mM)/ionomycin (1 μM) activation
Protocol: The thallium influx assay was performed with CHOK1 cells over-expressing KCa3.1 obtained from Evotec and maintained in MEM Alpha medium supplemented with 10% fetal bovine serum, 100 U/ml penicillin/[…] streptomycin and 250 μg/ml G418.
CHOK1 wild type cells were passaged using F12/Ham's medium supplemented with 10% fetal bovine serum, 2 mM glutamine, 100 U/ml penicillin/[…] streptomycin. All cells were cultured in T175 flasks.
Before the day of the assay, cells were harvested from culture flasks using standard trypsin digestion. Cells were counted and densities adjusted and dispensed into 384-well poly-D-lysine coated plates at 7500 […], assay plates were incubated overnight in CO2 incubator at 37° C.
The following day, growth media was removed followed by the addition of 25 ul/well of FluxOR™ (Invitrogen) loading dye in a gluconate based assay buffer (135 mM NaGluconate,
2.5 mM Kgluconate, 2 mM CaNO3, 1 mM MgNO3, 10 mM HEPES (acid), 5 mM glucose pH adjusted to 7.4). Assay plates were incubated for 1 hour at 37° C. The loading dye was then replaced with gluconate assay buffer containing probenecid.
Compounds diluted in gluconate buffer were transferred into the assay plates (25 μl/well) followed by incubation for 20 minutes at room temperature. The assay plates were then transferred to a Fluorometric Imaging Plate Reader (FLIPR), a baseline was read for twenty second capture, followed by the addition of 25 μl/well of channel activation solution in gluconate buffer—for KCa3.1 cells thallium (3.3 mM)/ionomycin(1 μM) was used and for the wild type, ionomycin only, then fluorescence was monitored for another 90 seconds.

h KCa3.1 = h KCa3.1 (Homo sapiens (Human), UniProt O15554); assay: Electrophysiology patch clamp (PatchXpress); assay type: cell-based; conditions: CHO cells over-expressing h KCa3.1, read-out: IC50 Ephys
Protocol: Electrophysiology Patch Clamp
Compounds were tested using a PatchXpress® (Model 7000A, Molecular Devices, Union City Calif.) on CHO cells over-expressing h KCa3.1 at ChanTest Corporation, 14656 Neo Parkway, Cleveland, Ohio.

[1] = tested on: human endometrial cancer cells; conditions: nude mice; cited from earlier work
human melanoma = conditions: severe combined immunodeficiency mice; cited from earlier work
[2] = tested on: allergen challenge-induced airway resistance and hyper-reactivity; conditions: sheep model of asthma; cited from earlier work
MDCK 3-D cyst = MDCK 3-D cyst model of ADPKD; cited from earlier work
[3] = tested on: trinitrobenzene sulfonic acid-induced colitis; conditions: mice; cited from earlier work
renal fibrosis = conditions: unilateral ureteral obstruction model; cited from earlier work
[4] = tested on: T-cell and macrophage infiltration; conditions: in combination with a Kv1.3 blocker; early stages of chronic kidney transplant rejection; cited from earlier work
[5] = tested on: neointimal smooth muscle hyperplasia; conditions: rats after carotid balloon angioplasty; cited from earlier work

| Structure (SMILES) | IC50 (KCa3.1) [nM] | IC50 (h KCa3.1) [nM] | further results |
| --- | --- | --- | --- |
| CCOC(=O)CN1C(=O)O[C@@H](c2cccc(C(F)(F)F)c2)[C@H]1c1ccc(F)cc1 (racemic) [Example 32, [(4RS,5SR)-4-(4-Fluoro-phenyl)-2-oxo-5-(3-trifluoromethyl-phenyl)-oxazolidin-3-yl]-acetic acid ethyl ester] | 600 | 62 |  |
| Clc1ccccc1C(c1ccccc1)(c1ccccc1)n1ccnc1 [Clotrimazole] |  |  | growth of tumours [1]: slowed the growth of tumours; number of metastases (human melanoma): reduce the number of metastases |
| NC(=O)CN1C(=O)OC(c2ccc(F)cc2)(c2ccc(F)cc2)[C@@H]1c1ccccc1 [Example 1, (S)-2-(5,5-bis(4-fluorophenyl)-2-oxo-4-phenyloxazolidin-3-yl)acetamide] | 860 | 58 |  |
| NC(=O)CN1C(=O)OC(c2ccc(F)cc2)(c2ccc(F)cc2)[C@@H]1c1ccc(F)cc1 [Example 7, 2-[(S)-4,5,5-Tris-(4-fluoro-phenyl)-2-oxo-oxazolidin-3-yl]-acetamide] | 720 | 45 |  |
| NC(=O)CN1C(=O)OC(c2ccc(F)cc2)(c2ccc(F)cc2)[C@@H]1c1ccccc1F [Example 11, 2-[(S)-5,5-Bis-(4-fluoro-phenyl)-4-(2-fluoro-phenyl)-2-oxo-oxazolidin-3-yl]-acetamide] | 250 | 22 |  |
| NC(=O)CN1C(=O)OC(c2ccccc2F)(c2ccccc2F)[C@@H]1c1ccccc1F [Example 13, 2-[(S)-4,5,5-Tris-(2-fluoro-phenyl)-2-oxo-oxazolidin-3-yl]-acetamide] | 340 | 15 |  |
| NC(=O)CN1C(=O)OC(c2cccc(F)c2)(c2cccc(F)c2)[C@@H]1c1ccccc1F [Example 15, 2-[(S)-5,5-Bis-(3-fluoro-phenyl)-4-(2-fluoro-phenyl)-2-oxo-oxazolidin-3-yl]-acetamide] | 700 | 42 |  |
| NC(=O)CN1C(=O)OC(c2ccccc2)(c2ccccc2)[C@@H]1c1ccccc1F [Example 17, 2-[(S)-4-(2-Fluoro-phenyl)-2-oxo-5,5-diphenyl-oxazolidin-3-yl]-acetamide] | 880 | 15 |  |
| NC(=O)CN1C(=O)OC(c2ccc(F)cc2)(c2ccc(F)cc2)[C@@H]1c1ccccc1Cl [Example 19, 2-[(S)-4-(2-Chloro-phenyl)-5,5-bis-(4-fluoro-phenyl)-2-oxo-oxazolidin-3-yl]-acetamide] | 740 | 63 |  |
| CCOC(=O)CN1C(=O)OC(c2ccc(F)cc2)(c2ccc(F)cc2)[C@@H]1C(C)(C)C [Example 35, [(S)-4-tert-Butyl-5,5-bis-(4-fluoro-phenyl)-2-oxo-oxazolidin-3-yl]-acetic acid ethyl ester] | 450 |  |  |
| NC(=O)C(c1ccccc1)(c1ccc(F)cc1)c1ccc(F)cc1 [Senicapoc] |  |  | allergen challenge-induced airway resistance and hyper-reactivity [2]: reduce allergen challenge-induced airway resistance and hyper-reactivity |
| Clc1ccccc1C(c1ccccc1)(c1ccccc1)n1cccn1 [TRAM-34] |  |  | cyst formation (MDCK 3-D cyst): inhibits cyst formation; severity of the symptoms [3]: significantly reduced the severity of the symptoms; renal fibrosis (renal fibrosis): significantly reduced renal fibrosis; T-cell and macrophage infiltration [4]: reduced T-cell and macrophage infiltration; neointimal smooth muscle hyperplasia [5]: significantly reduced neointimal smooth muscle hyperplasia |
